Laboratory results as given in the supplement of paper PMC10307832.

Key:
Experiment in all cases: relative viability (nuclei count vs DMSO), 5 days (fraction); higher = more cells survive
[1] = test system: HCC-15
Procedure, shortened: (§1)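 Five library-drug doses in √10 steps were combined with a fixed anchor-drug dose, or a single drug was given alone, by pin tool to lung cancer cell lines in 1536-well plates the day after seeding. Nuclei were stained and counted after 5 days. Relative viability is the nuclei count in treated wells over that in vehicle wells, taken as the median of duplicate plates.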

[2] = test system: SW 1573
Procedure, shortened: as §1

[3] = test system: LCLC-97TM1
Procedure, shortened: as §1

[4] = test system: UMC-11
Procedure, shortened: as §1

[5] = test system: LC-2-ad
Procedure, shortened: as §1

[6] = test system: NCI-H1734
Procedure, shortened: as §1

[7] = test system: NCI-H1563
Procedure, shortened: as §1

[8] = test system: NCI-H1975
Procedure, shortened: as §1

[9] = test system: NCI-H838
Procedure, shortened: as §1

[10] = test system: NCI-H2023
Procedure, shortened: as §1

[11] = test system: NCI-H1792
Procedure, shortened: as §1

[12] = test system: A-427
Procedure, shortened: as §1

[13] = test system: COR-L 105
Procedure, shortened: as §1

[14] = test system: NCI-H1915
Procedure, shortened: as §1

[15] = test system: HCC-44
Procedure, shortened: as §1

[16] = test system: EPLC-272H
Procedure, shortened: as §1

[17] = test system: CAL-12T
Procedure, shortened: as §1

[18] = test system: NCI-H520
Procedure, shortened: as §1

[19] = test system: NCI-H2347
Procedure, shortened: as §1

[20] = test system: NCI-H1395
Procedure, shortened: as §1

[21] = test system: NCI-H2405
Procedure, shortened: as §1

Nc1cccc2c1CN(C1CCC(=O)NC1=O)C2=O (configuration not stated) [Lenalidomide] + CS(=O)(=O)CCNCc1ccc(-c2ccc3ncnc(Nc4ccc(OCc5cccc(F)c5)c(Cl)c4)c3c2)o1 [Lapatinib] (partner 2 µM)
relative viability ([1]; first compound 0.253 µM): 0.902
relative viability ([1]; first compound 2.53 µM): 1.07
relative viability ([1]; first compound 8 µM): 0.841
relative viability ([2]; first compound 0.253 µM): 1.12
relative viability ([2]; first compound 0.8 µM): 1.08
relative viability ([2]; first compound 2.53 µM): 1.12
relative viability ([2]; first compound 8 µM): 0.992
relative viability ([3]; first compound 0.8 µM): 0.602
relative viability ([3]; first compound 2.53 µM): 1.09
relative viability ([3]; first compound 8 µM): 0.623
relative viability ([4]; first compound 0.253 µM): 1.1
relative viability ([4]; first compound 0.8 µM): 0.803
relative viability ([4]; first compound 2.53 µM): 1.04
relative viability ([4]; first compound 8 µM): 0.791
relative viability ([5]; first compound 0.253 µM): 0.941
relative viability ([5]; first compound 0.8 µM): 0.96
relative viability ([5]; first compound 2.53 µM): 1.05
relative viability ([5]; first compound 8 µM): 1
relative viability ([6]; first compound 0.253 µM): 1.09
relative viability ([6]; first compound 0.8 µM): 1.1
relative viability ([6]; first compound 2.53 µM): 1.18
relative viability ([6]; first compound 8 µM): 0.969
relative viability ([7]; first compound 0.253 µM): 0.919
relative viability ([7]; first compound 0.8 µM): 0.852
relative viability ([7]; first compound 2.53 µM): 0.979
relative viability ([7]; first compound 8 µM): 0.763
relative viability ([8]; first compound 0.253 µM): 0.897
relative viability ([8]; first compound 0.8 µM): 0.799
relative viability ([8]; first compound 2.53 µM): 1.07
relative viability ([8]; first compound 8 µM): 0.909
relative viability ([9]; first compound 0.253 µM): 0.807
relative viability ([9]; first compound 0.8 µM): 0.956
relative viability ([9]; first compound 2.53 µM): 1.34
relative viability ([9]; first compound 8 µM): 0.816
relative viability ([10]; first compound 0.253 µM): 0.74
relative viability ([10]; first compound 0.8 µM): 0.859
relative viability ([10]; first compound 2.53 µM): 0.838
relative viability ([10]; first compound 8 µM): 0.568
relative viability ([11]; first compound 0.253 µM): 0.946
relative viability ([11]; first compound 0.8 µM): 0.729
relative viability ([11]; first compound 2.53 µM): 1.03
relative viability ([11]; first compound 8 µM): 0.666
relative viability ([12]; first compound 0.253 µM): 0.983
relative viability ([12]; first compound 2.53 µM): 1.1
relative viability ([12]; first compound 8 µM): 0.975
relative viability ([13]; first compound 0.253 µM): 0.386
relative viability ([13]; first compound 0.8 µM): 0.364
relative viability ([13]; first compound 2.53 µM): 0.343
relative viability ([13]; first compound 8 µM): 0.33
relative viability ([14]; first compound 0.253 µM): 0.979
relative viability ([14]; first compound 0.8 µM): 0.807
relative viability ([14]; first compound 2.53 µM): 1.11
relative viability ([14]; first compound 8 µM): 1.02
relative viability ([15]; first compound 0.253 µM): 0.997
relative viability ([15]; first compound 0.8 µM): 0.799
relative viability ([15]; first compound 2.53 µM): 1.05
relative viability ([15]; first compound 8 µM): 0.924
relative viability ([16]; first compound 0.253 µM): 0.97
relative viability ([16]; first compound 2.53 µM): 0.976
relative viability ([16]; first compound 8 µM): 0.648
relative viability ([17]; first compound 0.253 µM): 0.602
relative viability ([17]; first compound 2.53 µM): 0.801
relative viability ([17]; first compound 8 µM): 0.403
relative viability ([18]; first compound 0.253 µM): 0.82
relative viability ([18]; first compound 0.8 µM): 0.929
relative viability ([18]; first compound 2.53 µM): 1.11
relative viability ([18]; first compound 8 µM): 0.637
relative viability ([19]; first compound 0.253 µM): 0.928
relative viability ([19]; first compound 0.8 µM): 0.797
relative viability ([19]; first compound 2.53 µM): 0.894
relative viability ([19]; first compound 8 µM): 0.802
relative viability ([20]; first compound 0.253 µM): 1.1
relative viability ([20]; first compound 2.53 µM): 0.948
relative viability ([20]; first compound 8 µM): 0.845
relative viability ([21]; first compound 0.253 µM): 1
relative viability ([21]; first compound 0.8 µM): 0.949
relative viability ([21]; first compound 2.53 µM): 1.03
relative viability ([21]; first compound 8 µM): 0.884

Nc1cccc2c1CN(C1CCC(=O)NC1=O)C2=O (configuration not stated) [Lenalidomide] + Cc1nc(NC(=O)N2CCC[C@H]2C(N)=O)sc1-c1ccnc(C(C)(C)C(F)(F)F)c1 [Alpelisib] (partner 2 µM)
relative viability ([1]; first compound 0.253 µM): 1.02
relative viability ([1]; first compound 2.53 µM): 0.886
relative viability ([1]; first compound 8 µM): 0.865
relative viability ([2]; first compound 0.253 µM): 0.775
relative viability ([2]; first compound 0.8 µM): 0.921
relative viability ([2]; first compound 2.53 µM): 1.01
relative viability ([2]; first compound 8 µM): 0.696
relative viability ([3]; first compound 0.8 µM): 0.236
relative viability ([3]; first compound 2.53 µM): 0.308
relative viability ([3]; first compound 8 µM): 0.164
relative viability ([4]; first compound 0.253 µM): 1.05
relative viability ([4]; first compound 0.8 µM): 0.961
relative viability ([4]; first compound 2.53 µM): 1.03
relative viability ([4]; first compound 8 µM): 0.958
relative viability ([5]; first compound 0.253 µM): 0.86
relative viability ([5]; first compound 0.8 µM): 0.98
relative viability ([5]; first compound 2.53 µM): 0.84
relative viability ([5]; first compound 8 µM): 0.881
relative viability ([6]; first compound 0.253 µM): 0.669
relative viability ([6]; first compound 0.8 µM): 0.757
relative viability ([6]; first compound 2.53 µM): 0.746
relative viability ([6]; first compound 8 µM): 0.608
relative viability ([7]; first compound 0.253 µM): 0.843
relative viability ([7]; first compound 0.8 µM): 0.908
relative viability ([7]; first compound 2.53 µM): 0.829
relative viability ([7]; first compound 8 µM): 0.87
relative viability ([8]; first compound 0.253 µM): 0.724
relative viability ([8]; first compound 0.8 µM): 0.667
relative viability ([8]; first compound 2.53 µM): 0.753
relative viability ([8]; first compound 8 µM): 0.592
relative viability ([9]; first compound 0.253 µM): 0.97
relative viability ([9]; first compound 0.8 µM): 1
relative viability ([9]; first compound 2.53 µM): 1.25
relative viability ([9]; first compound 8 µM): 0.896
relative viability ([10]; first compound 0.253 µM): 0.594
relative viability ([10]; first compound 0.8 µM): 0.745
relative viability ([10]; first compound 2.53 µM): 0.697
relative viability ([10]; first compound 8 µM): 0.61
relative viability ([11]; first compound 0.253 µM): 0.755
relative viability ([11]; first compound 0.8 µM): 0.604
relative viability ([11]; first compound 2.53 µM): 0.82
relative viability ([11]; first compound 8 µM): 0.612
relative viability ([12]; first compound 0.253 µM): 1.11
relative viability ([12]; first compound 2.53 µM): 1.09
relative viability ([12]; first compound 8 µM): 1.02
relative viability ([13]; first compound 0.253 µM): 0.982
relative viability ([13]; first compound 0.8 µM): 0.81
relative viability ([13]; first compound 2.53 µM): 1.07
relative viability ([13]; first compound 8 µM): 0.994
relative viability ([14]; first compound 0.253 µM): 0.984
relative viability ([14]; first compound 0.8 µM): 1.07
relative viability ([14]; first compound 2.53 µM): 1.13
relative viability ([14]; first compound 8 µM): 1.07
relative viability ([15]; first compound 0.253 µM): 0.865
relative viability ([15]; first compound 0.8 µM): 0.594
relative viability ([15]; first compound 2.53 µM): 0.821
relative viability ([15]; first compound 8 µM): 0.663
relative viability ([16]; first compound 0.253 µM): 0.975
relative viability ([16]; first compound 2.53 µM): 1.03
relative viability ([16]; first compound 8 µM): 0.684
relative viability ([17]; first compound 0.253 µM): 1.09
relative viability ([17]; first compound 0.8 µM): 1.33
relative viability ([17]; first compound 2.53 µM): 1.52
relative viability ([17]; first compound 8 µM): 1.36
relative viability ([18]; first compound 0.253 µM): 0.88
relative viability ([18]; first compound 0.8 µM): 0.922
relative viability ([18]; first compound 2.53 µM): 1.15
relative viability ([18]; first compound 8 µM): 0.779
relative viability ([19]; first compound 0.253 µM): 1.06
relative viability ([19]; first compound 0.8 µM): 0.957
relative viability ([19]; first compound 2.53 µM): 0.964
relative viability ([19]; first compound 8 µM): 0.875
relative viability ([20]; first compound 0.253 µM): 0.946
relative viability ([20]; first compound 2.53 µM): 1.06
relative viability ([20]; first compound 8 µM): 0.948
relative viability ([21]; first compound 0.253 µM): 0.672
relative viability ([21]; first compound 0.8 µM): 0.83
relative viability ([21]; first compound 2.53 µM): 0.843
relative viability ([21]; first compound 8 µM): 0.563
